From patent US12365667B2, “Sulfone pyridine alkyl amide-substituted heteroaryl compounds” (BRISTOL-MYERS SQUIBB COMPANY, priority 2017, dated 2025)
pIC50: −log10 of the molar value.

Tested on: IFNα-induced STAT phosphorylation (pSTAT5) in human whole blood
Experiment: IFNα-Induced STAT Phosphorylation in Human Whole Blood
Assay type: cell-based
Settings: 1 h incubation with compound, 1000 U/mL recombinant human IFNα A/D for 15 min, pSTAT5 in CD3 positive population, read-out: IFNα-Induced Stat Phosph. (IC50)
Procedure: IFNα-Induced STAT Phosphorylation in Human Whole Blood
After an hour long incubation with compound, human whole blood (drawn with either EDTA or ACD-A as anti-coagulant) was stimulated with 1000 U/mL recombinant human IFNα A/D (R&D Systems 11200-2) for 15 min. The stimulation was stopped by adding Fix/Lyse buffer (BD 558049). Cells were stained with a CD3 FITC antibody (BD 555916), washed, and permeabilized on ice using Perm III buffer (BD 558050). Cells were then stained with an Alexa-Fluor 647 pSTAT5 (pY694) antibody (BD 612599) for 30 min prior to analysis on the FACS Canto II. The amount of pSTAT5 expression was quantitated by median fluorescence intensity after gating on the CD3 positive population.

pIC50	Compound
7.89	CNC(=O)c1nnc(Nc2ccc(OC3CCOC3)nn2)cc1Nc1ncccc1S(C)(=O)=O (centres unmarked) [Example 63]
7.34	CNC(=O)c1nnc(Nc2ccc(-c3c(F)cccc3F)nn2)cc1Nc1ncccc1S(C)(=O)=O [Example 104]
6.24	CNC(=O)c1nnc(Nc2ccn(C)n2)cc1Nc1nc(OC)ccc1S(C)(=O)=O [Example 204]
6.61	CNC(=O)c1nnc(Nc2ccnc(-c3ccccc3)n2)cc1Nc1ncccc1S(C)(=O)=O [Example 111]
7.89	CCOC(=O)N1CCN(c2ccc(Nc3cc(Nc4ncccc4S(C)(=O)=O)c(C(=O)NC)nn3)nc2)CC1 [Example 107]
6.78	CCCC(=O)Nc1cc(Nc2ncccc2S(C)(=O)=O)c(C(=O)NC)nn1 [Example 108]
7.68	CNC(=O)c1nnc(Nc2ccc(C)cn2)cc1Nc1ncccc1S(C)(=O)=O [Example 10]
8.15	CNC(=O)c1nnc(Nc2cc(COC)ccn2)cc1Nc1ncccc1S(C)(=O)=O [Example 156]
7.41	CCNC(=O)Nc1cc(Nc2ncccc2S(C)(=O)=O)c(C(=O)NC)nn1 [Example 121]
7.89	CNC(=O)c1cnc(Nc2cc(C#N)ccn2)cc1Nc1ncccc1S(C)(=O)=O [Example 221]
7.22	CNC(=O)c1nnc(Nc2ccn(C3CC3)n2)cc1Nc1ncccc1S(C)(=O)=O [Example 167]
6.88	CNC(=O)c1nnc(NC(=O)CCOC)cc1Nc1ncccc1S(C)(=O)=O [Example 118]
7.55	CNC(=O)c1nnc(Nc2ccc(OC)nn2)cc1Nc1ncccc1S(C)(=O)=O [Example 28]
7.14	CCCCC(=O)Nc1cc(Nc2ncccc2S(C)(=O)=O)c(C(=O)NC)nn1 [Example 119]
7.30	CNC(=O)c1nnc(Nc2cc(Cl)c(C(C)(C)O)cn2)cc1Nc1nc(OC)ccc1S(C)(=O)=O [Example 202]
7.51	CNC(=O)c1nnc(Nc2cc(C(F)(F)F)c(C(C)(C)O)cn2)cc1Nc1ncccc1S(C)(=O)=O [Example 31]
7.34	CNC(=O)c1nnc(Nc2ccc(N3CCOCC3)cn2)cc1Nc1nc(OC)ccc1S(C)(=O)=O [Example 203]
7.21	CNC(=O)c1nnc(NC(=O)C=C2CCCCC2)cc1Nc1ncccc1S(C)(=O)=O [Example 128]
7.80	CNC(=O)c1nnc(Nc2ccc(N3CCOCC3C)cn2)cc1Nc1ncccc1S(C)(=O)=O (centres unmarked) [Example 103]
6.57	CNC(=O)c1nnc(NC(=O)C2CC(F)C2)cc1Nc1ncccc1S(C)(=O)=O (single isomer, unassigned) [Example 125]

pIC50	Compound
7.10	CNC(=O)c1nnc(Nc2ccc(OCCOC)nn2)cc1Nc1ncccc1S(C)(=O)=O [Example 64]
7.59	CNC(=O)c1nnc(NC(=O)[C@@H]2C[C@H]2F)cc1Nc1ncccc1S(C)(=O)=O [Example 43]
7.96	CNC(=O)c1nnc(Nc2ccc(C(C)(C)NC3COC3)cn2)cc1Nc1ncccc1S(C)(=O)=O [compound 170]
7.40	CNC(=O)c1nnc(Nc2ccc(F)nn2)cc1Nc1ncccc1S(C)(=O)=O [Example 86]
7.36	CNC(=O)c1cnc(Nc2cccnn2)cc1Nc1ncccc1S(C)(=O)=O [Example 224]
7.33	CNC(=O)c1nnc(Nc2cc(C(F)(F)F)n(C)n2)cc1Nc1ncccc1S(C)(=O)=O [Example 88]
7.38	CNC(=O)c1nnc(Nc2ccc(OC)nn2)cc1Nc1ncccc1S(C)(=O)=O [Example 7]
6.46	CNC(=O)c1nnc(NC(=O)C2CC(F)C2)cc1Nc1ncccc1S(C)(=O)=O (single isomer, unassigned) [Example 126]
5.97	CNC(=O)c1cnc(NC(=O)OC)cc1Nc1ncccc1S(C)(=O)=O [Example 237]
7.47	CNC(=O)c1nnc(Nc2ccc(OC(F)(F)F)cn2)cc1Nc1ncccc1S(C)(=O)=O [Example 140]
7.21	CNC(=O)c1nnc(NC(=O)C=C(C)C)cc1Nc1ncccc1S(C)(=O)=O [Example 120]
6.85	CCOc1cc(Nc2cc(Nc3ncccc3S(C)(=O)=O)c(C(=O)NC)nn2)ncc1C(C)(C)O [Example 149]
7.06	CNC(=O)c1nnc(Nc2cc(C(F)(F)F)ncn2)cc1Nc1ncccc1S(C)(=O)=O [Example 27]
6.36	CNC(=O)c1nnc(NC(=O)C(C)C)cc1Nc1ncccc1S(C)(=O)=O [Example 131]
6.54	CNC(=O)c1cnc(NC(=O)C2CCC2)cc1Nc1ncccc1S(C)(=O)=O [Example 239]
7.49	CNC(=O)c1nnc(NC(=O)C2CC2)cc1Nc1nc(C)ccc1S(C)(=O)=O [Example 187]
7.02	CNC(=O)c1nnc(Nc2cc(COC)ncn2)cc1Nc1ncccc1S(C)(=O)=O [Example 101]
6.73	CNC(=O)c1nnc(Nc2cc(C)nc(C)n2)cc1Nc1ncccc1[S+](C)[O-] (centres unmarked) [Example 254]
5.65	CNC(=O)c1nnc(Nc2ccc(-c3c(F)cccc3F)nn2)cc1Nc1nc(F)ccc1S(C)(=O)=O [Example 182]
8.22	CNC(=O)c1nnc(Nc2ccc(C(C)(C)O)cn2)cc1Nc1nc(C)ccc1S(C)(=O)=O [Example 188]

Same assay, conditions: Homo sapiens, 1 h incubation with compound, 1000 U/mL recombinant human IFNα A/D for 15 min, pSTAT5 in CD3 positive population, read-out: IFNα-Induced Stat Phosph. (IC50)

pIC50	Compound
6.64	[2H]C([2H])([2H])NC(=O)c1nnc(Nc2ccc(C(C)(C)O)cc2)cc1Nc1nc(C2CC2)ccc1S(C)(=O)=O [Example 207, 4-((6-cyclopropyl-3-(methylsulfonyl)pyridin-2-yl)amino)-6-((4-(2-hydroxypropan-2-yl)phenyl)amino)-N-(methyl-d3)pyridazine-3-carboxamide]
6.98	[2H]C([2H])([2H])NC(=O)c1nnc(Nc2ccc(OC)nn2)cc1Nc1nc(C)ccc1S(C)(=O)=O [Example 183, 6-((6-methoxypyridazin-3-yl)amino)-N-(methyl-d3)-4-((6-methyl-3-(methylsulfonyl)pyridin-2-yl)amino)pyridazine-3-carboxamide]
7.25	CNC(=O)c1nnc(Nc2ccc(OC)nn2)cc1Nc1ncccc1S(C)(=O)=O [Example 209, 6-((6-methoxypyridazin-3-yl)amino)-N-methyl-4-((3-(methylsulfonyl)pyridin-2-yl)amino)pyridazine-3-carboxamide]
7.02	[2H]C([2H])([2H])NC(=O)c1nnc(NC(C)=O)cc1Nc1ncccc1S(C)(=O)=O [Example 163, 6-acetamido-N-trideuteromethyl-4-((3-(methylsulfonyl)pyridin-2-yl)amino)pyridazine-3-carboxamide]
6.32	[2H]C([2H])([2H])NC(=O)c1nnc(Nc2cc(C)nc(C)n2)cc1Nc1nc(F)ccc1S(C)(=O)=O [Example 178, 6-((2,6-dimethylpyrimidin-4-yl)amino)-4-((6-fluoro-3-(methylsulfonyl)pyridin-2-yl)amino)-N-(methyl-d3)pyridazine-3-carboxamide]
7.92	[2H]C([2H])([2H])NC(=O)c1nnc(Nc2ccc(CNC(C)=O)cn2)cc1Nc1ncccc1S(C)(=O)=O [Example 69, 6-((5-(acetamidomethyl)pyridin-2-yl)amino)-N-(methyl-d3)-4-((3-(methylsulfonyl)pyridin-2-yl)amino)pyridazine-3-carboxamide]
7.77	[2H]C([2H])([2H])NC(=O)c1nnc(Nc2cncc(C)n2)cc1Nc1ncccc1S(C)(=O)=O [Example 173, N-(methyl-d3)-6-((6-methylpyrazin-2-yl)amino)-4-((3-(methylsulfonyl)pyridin-2-yl)amino)pyridazine-3-carboxamide]
